These results are taken from paper PMC5789824, “A presumed homologue of the regulatory subunits of eIF2B functions as ribose-1,5-bisphosphate isomerase in Pyrococcus horikoshii OT3” (Scientific Reports, 2018).

Experiment [1] deals with T1, PH0208 protein (PH0208-WT, PH0208-C135S, PH0208-D204N) (Pyrococcus horikoshii, UniProt O57947, M1V).
T1 construct: an N-terminal α-helical domain (residues 1–122) and a C-terminal α-β-α sandwich domain (residues 123–324); made in house; host or cells: Escherichia coli Rosetta (DE3)
Put plainly: Co-crystallization or soaking with ribonucleotides (crystal structure complexes). It counts as binding, Pyrococcus horikoshii OT3. As to conditions: for binding of ribonucleotide seen in crystal structure (electron density): co-crystallization or soaking of PH0208-WT, -C135S, -D204N; for preferred molecule at the 'AMP binding site': crystallized in presence of both AMP (1.5 mM) and GMP (4.5 mM). The method, then:
To identify the binding site of ribonucleotides, either co-crystallization or soaking of PH0208-WT, PH0208-C135S and PH0208-D204N proteins with AMP, GMP, CMP and TMP was performed. […] The binding site of AMP lies at the interface of three monomers (chain A, B and D) of the hexameric protein (Fig. 4a). The side chains of Arg124 and Asp290 of chain A undergoes a shift towards AMP to form hydrogen bond with the O2′ and O3′ oxygen atoms of the ribose sugar (Fig. 4b). Another two residues of chain A, Arg229 and Trp231 are involved in interacting with the phosphate groups of the AMP molecule. The side chain atoms of Asn209 and the backbone atoms of Val251 of chain B forms hydrogen bond with the oxygen (O2′ and O3′) atoms of the ribose sugar and the nitrogen (N1 and N6) atom of the adenosine base ring, respectively. Along with chain A and chain B, AMP also binds to a third protomer of the hexameric protein through interactions involving the side chain atoms of Arg190 and Lys194 of chain D (Fig. 4c). Thus, one AMP molecule positions itself to hold three protomers of the hexamer. All the amino acid residues of PH0208 protein forming hydrogen bond with AMP are found to be absolutely conserved in R15Pi enzymes. […] In case of both the mutants, PH0208-C135S and PH0208-D204N, AMP occupies a similar position to that of PH0208-WT protein with the major interactions arising from the three subunits of the hexamer. Similar to PH0208-WT, the adenosine base ring interacts with Val251 of chain B, the oxygen atoms of ribose sugar interacts with Arg124 & Asp290 of chain A and Asn209 of chain B while the phosphate group forms hydrogen bond with Arg229 & Trp231 of chain A and Arg190 & Lys194 of chain D of the mutant proteins (Fig. 4d–f).
To obtain crystals of PH0208-WT, an initial screening was performed by mixing 2 μl of protein and 2 μl of crystallization condition available in Crystal Screen, Crystal Screen 2 and PEG/Ion kits from Hampton research at 277 K and 293 K by the microbatch-under-oil technique. Further refinement of one of the conditions containing 2.0 M NaCl and 10% (w/v) PEG 6000 using hanging-drop vapor-diffusion technique in 24-well plate was performed to obtain better crystals. However, crystals of the apo form of PH0208-WT protein diffracted very poorly. To obtain diffraction quality crystals, the substrate (R15P) was added to the crystallization drop which was then equilibrated against 500 μl of 0.7 M NaCl and 3% PEG 6000. Yet, the crystals formed diffracted to a resolution of ~7 Å, only. […] For co-crystallization of PH0208-WT, PH0208-C135S and PH0208-D204N with different ligands, the final protein concentration was kept at 9.5, 9.0 and 7.0 mg ml^−1, respectively in 20 mM Tris-HCl pH 8.0 and 150 mM KCl. The final concentration of R15P in the crystallization drops were 8.33–9 mM while that of AMP, GMP, CMP and TMP were 1.66, 4.5 & 9, 1.66 and 9 mM, respectively. In case of ligand soaking, the concentration of AMP was kept at 5 mM. For obtaining the crystals of ligand bound PH0208-C135S and PH0208-D204N complexes, the reservoir buffer was further supplemented with 0.1–0.3% of low melting (LM) agarose. All the crystals were obtained in hanging-drop vapor-diffusion method at 20 °C within a period of 2–7 days.

For experiment [2], the system named is ribose-1,5-bisphosphate isomerase (R15Pi). On the set-up: method as in PMID 23065974. As to conditions: result in words; cited from earlier work.
Experiment [3] addresses T2, PH0208-C135S mutant protein (Pyrococcus horikoshii, UniProt O57947, C135S).
T2 construct: an N-terminal α-helical domain (residues 1–122) and a C-terminal α-β-α sandwich domain (residues 123–324); made in house; host or cells: Escherichia coli Rosetta (DE3)
Nature of the experiment: biochemical. It counts as binding, Pyrococcus horikoshii OT3. The protocol:
(§1) To determine the binding affinity of the substrate (R15P) and the product (RuBP) to the protein PH0208, isothermal titration calorimetry (ITC) experiments were performed. Since binding of the substrate to the PH0208-WT protein triggers a conformational change along with the formation of the product, the heat change measured during the ITC experiment would reflect the sum of heat generated and absorbed during each event. As a result, the binding affinity (Kd) of PH0208 and R15P/RuBP obtained would be delusional. Therefore, binding affinity was studied using the mutant proteins, PH0208-C135S and PH0208-D204N in which case the heat change would be solely due to ligand binding.
(§2) ITC experiments of mutant proteins (PH0208-C135S, PH0208-C135A and PH0208-D204N) with the substrate (R15P) and the product (RuBP) molecules were measured at 25 °C using MicroCal iTC200. Before ITC experiments, the proteins were dialyzed extensively in buffer (20 mM Tris-HCl pH 8.0 and 150 mM KCl) and the equilibrated buffer was subsequently used to prepare ligand solutions to minimize the heat of dilution effects. Each titration consisted of a preliminary injection of 0.4 μl of 7.5–8.0 mM of R15P and RuBP followed by 24 injections of 1.2 μl (spacing 120 s) into the sample cell filled with protein at a final concentration of 75–80 μM. During titration, the syringe rotated at a speed of 450 rpm to facilitate adequate mixing of the reactants. Data were analyzed using MicroCal ORIGIN software and baselines were subtracted from data to obtain accurate heat exchanges.

Experiment [4] has as its target T3, PH0208-D204N mutant protein (Pyrococcus horikoshii, UniProt O57947, D204N).
T3 construct: an N-terminal α-helical domain (residues 1–122) and a C-terminal α-β-α sandwich domain (residues 123–324); made in house; host or cells: Escherichia coli Rosetta (DE3)
Nature of the experiment: biochemical. The class given is binding, Pyrococcus horikoshii OT3. The protocol: as §1, §2

For experiment [5], the target named is T4, PH0208-C135A mutant protein (Pyrococcus horikoshii, UniProt O57947, C135A).
T4 construct: an N-terminal α-helical domain (residues 1–122) and a C-terminal α-β-α sandwich domain (residues 123–324); made in house; host or cells: Escherichia coli Rosetta (DE3)
Nature of the experiment: biochemical. The class given is binding, Pyrococcus horikoshii OT3. The method, then: Henceforth, Cys135 was mutated to alanine (PH0208-C135A) to understand its role in ligand (R15P/RuBP) binding.
as §2

Read-outs that look alike come from different tables or passages of the source.

T2 sequence (O57947 whole entry C135S, the tested form may be a part): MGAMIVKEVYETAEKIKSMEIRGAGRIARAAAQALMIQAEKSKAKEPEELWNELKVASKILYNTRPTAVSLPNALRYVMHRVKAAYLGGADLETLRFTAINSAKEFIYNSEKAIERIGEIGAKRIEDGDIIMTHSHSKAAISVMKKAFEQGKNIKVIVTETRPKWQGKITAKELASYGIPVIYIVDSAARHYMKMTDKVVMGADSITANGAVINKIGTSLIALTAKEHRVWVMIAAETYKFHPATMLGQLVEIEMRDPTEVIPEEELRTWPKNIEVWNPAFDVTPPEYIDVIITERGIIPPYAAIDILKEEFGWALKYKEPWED
T4 sequence (O57947 whole entry C135A, the tested form may be a part): as the sequence (O57947 whole entry C135S, the tested form may be a part) above, with S135A counted along it
T3 sequence (O57947 whole entry D204N, the tested form may be a part): as the sequence (O57947 whole entry C135S, the tested form may be a part) above, with S135C, D204N counted along it
T1 sequence (O57947 whole entry M1V, the tested form may be a part): as the sequence (O57947 whole entry C135S, the tested form may be a part) above, with M1V, S135C counted along it

In the case of `Cc1cn([C@H]2C[C@H](O)[C@@H](COP(=O)(O)O)O2)c(=O)[nH]c1=O` [TMP, thymidine 5′-monophospahte], the “binding of ribonucleotide seen in crystal structure (electron density)” value (shortened to “binding of ribonucleotide seen”) in experiment [1] was “no electron density”. Moreover, in experiment [2], the “effect on enzymatic activity / catalytic efficiency of R15Pi” value is given as “neither cytosine 5′-monophosphate (CMP) nor thymidine 5′-monophospahte (TMP) possesses the ability to increase the enzymatic activity”.
`Nc1ccn([C@@H]2O[C@H](COP(=O)(O)O)[C@@H](O)[C@H]2O)c(=O)n1` [CMP, cytosine 5′-monophosphate]: the “binding of ribonucleotide seen” value in experiment [1] is “no electron density”. In experiment [2], the “effect on enzymatic activity / catalytic efficiency of R15Pi” value was “neither cytosine 5′-monophosphate (CMP) nor thymidine 5′-monophospahte (TMP) possesses the ability to increase the enzymatic activity”.
Turning to `Nc1ncnc2c1ncn2[C@@H]1O[C@H](COP(=O)(O)O)[C@@H](O)[C@H]1O` [AMP, adenosine 5′-monophosphate], in experiment [1], the “binding of ribonucleotide seen” value was “bound to the proteins”; the “preferred molecule at the 'AMP binding site'” value is “AMP outcompete GMP and binds to the ‘AMP binding site’”. Moreover, the “effect on enzymatic activity / catalytic efficiency of R15Pi” value in experiment [2] was “activator of R15Pi”.
`Nc1ncnc2c1ncn2[C@@H]1O[C@H](CSCC[C@H](N)C(=O)O)[C@@H](O)[C@H]1O` [SAH, S-adenosyl homocysteine]: in experiment [2], the “effect on enzymatic activity / catalytic efficiency of R15Pi” value is reported as “inability”.
One may read the Kd as the concentration at which binding is half-saturated. With `O=C(COP(=O)(O)O)[C@H](O)[C@H](O)COP(=O)(O)O` [RuBP, ribulose-1,5-bisphosphate], the Kd in experiment [3] turned out to be 7.5 µM; in experiment [4], 7.2 µM; in experiment [5], 309 µM. The Ka in experiment [3] (ITC, 25 °C) was 133000 ± 72100 M⁻¹; in experiment [4] (ITC, 25 °C), 139000 ± 12000 M⁻¹; in experiment [5] (ITC, 25 °C), 3.23 × 10^3 ± 299 M^−1. Besides, the “T∆S” value is 9.37 kJ/mol in experiment [3] (ITC, 25 °C); 16.9 kJ/mol in experiment [4] (ITC, 25 °C); -17.3 kJ/mol in experiment [5] (ITC, 25 °C). Further, the “∆G” value is -29.2 kJ/mol in experiment [3] (ITC, 25 °C); -29.3 kJ/mol in experiment [4] (ITC, 25 °C); -20.1 kJ/mol in experiment [5] (ITC, 25 °C). Besides, the “∆H” value in experiment [3] (ITC, 25 °C) is -19.8 ± 1.63 kJ/mol; in experiment [4] (ITC, 25 °C), -12.3 ± 0.25 kJ/mol; in experiment [5] (ITC, 25 °C), -37.4 ± 1.67 kJ/mol.
Consider `Nc1nc2c(ncn2[C@@H]2O[C@H](COP(=O)(O)O)[C@@H](O)[C@H]2O)c(=O)[nH]1` [GMP, guanosine 5′-monophosphate], for which, in experiment [1], the “binding of ribonucleotide seen” value is recorded as “bound to the proteins” and the “preferred molecule at the 'AMP binding site'” value is “GMP binds to the ‘GMP binding loop’”. The “effect on enzymatic activity / catalytic efficiency of R15Pi” value in experiment [2] is “elevates the activity of R15Pi, though to a lesser extent as compared to AMP”.
In the case of `C[S+](CC[C@H](N)C(=O)[O-])C[C@H]1O[C@@H](n2cnc3c(N)ncnc32)[C@H](O)[C@@H]1O` (stereo partly shown) [SAM, S-adenosyl methionine], the “effect on enzymatic activity / catalytic efficiency of R15Pi” value in experiment [2] is given as “inability”.
On to `Nc1ncnc2c1ncn2[C@@H]1O[C@H](COP(=O)(O)OP(=O)(O)OP(=O)(O)O)[C@@H](O)[C@H]1O` [ATP, adenosine 5ʹ-triphosphate], for which the “effect on enzymatic activity / catalytic efficiency of R15Pi” value in experiment [2] is recorded as “inability”.
Turning to `O=P(O)(O)OC[C@H]1OC(OP(=O)(O)O)[C@H](O)[C@@H]1O` (stereo partly shown) [R15P, ribose-1,5-bisphosphate], in experiment [3] (ITC, 25 °C), the Ka was 72000 ± 7130 M⁻¹, the “T∆S” value is 29.4 kJ/mol, the “∆G” value is -27.6 kJ/mol and the “∆H” value is 1.69 ± 0.0544 kJ/mol. The compound also came in with a N in experiment [3] (ITC, 25 °C, single-site model, '(fixed)' = fixed in fit) of 1.17 ± 0.03. In addition, in experiment [3] (ITC, 25 °C, read-out: Kd), the Kd is 13.8 µM. Further, in experiment [4] (ITC, 25 °C), the Ka came out at 99100 ± 2630 M⁻¹, the “T∆S” value was determined as 32.5 kJ/mol, the “∆G” value is -28.5 kJ/mol and the “∆H” value was 4.1 ± 0.205 kJ/mol. Further, in experiment [4] (ITC, 25 °C, read-out: Kd), the equilibrium dissociation constant (Kd) stood at 10 µM. In addition, the “interaction with PH0208-C135A (ITC)” value in experiment [5] (ITC, 25 °C, result in words) is given as “did not show any interaction”.
